Data set [1] addresses T1, Histone acetyltransferase KAT6A (Homo sapiens, UniProt Q92794). The experiment in a line: Inhibition of KAT6A in human MVLN cells assessed as decrease in estrogen receptor level incubated for 24 hrs by gene reporter assay. Format: cell-based.
The target in data set [2] is T1, Histone acetyltransferase KAT6A. The experiment in a line: Inhibition of his-tagged human recombinant KAT6A (194 to 810 residues) expressed in baculovirus-infected Sf9 insect cells using H4-derived peptide as substrate incubated for 40 mins in presence of AcCoA by TR-FRET assay.
Data set [3] can be described thus: Dissociation constant, pKa of compound. Format: physicochemical.
The target in data set [4] is Histone acetyltransferase KAT6B (Homo sapiens, UniProt Q8WYB5). The experiment in a line: Inhibition of C-terminal human recombinant KAT6B (431 to end residues) expressed in baculovirus-infected Sf9 insect cells using H4-derived peptide as substrate incubated for 30 mins in presence of AcCoA by TR-FRET assay.
Sequence of Histone acetyltransferase KAT6B (Q8WYB5 whole entry): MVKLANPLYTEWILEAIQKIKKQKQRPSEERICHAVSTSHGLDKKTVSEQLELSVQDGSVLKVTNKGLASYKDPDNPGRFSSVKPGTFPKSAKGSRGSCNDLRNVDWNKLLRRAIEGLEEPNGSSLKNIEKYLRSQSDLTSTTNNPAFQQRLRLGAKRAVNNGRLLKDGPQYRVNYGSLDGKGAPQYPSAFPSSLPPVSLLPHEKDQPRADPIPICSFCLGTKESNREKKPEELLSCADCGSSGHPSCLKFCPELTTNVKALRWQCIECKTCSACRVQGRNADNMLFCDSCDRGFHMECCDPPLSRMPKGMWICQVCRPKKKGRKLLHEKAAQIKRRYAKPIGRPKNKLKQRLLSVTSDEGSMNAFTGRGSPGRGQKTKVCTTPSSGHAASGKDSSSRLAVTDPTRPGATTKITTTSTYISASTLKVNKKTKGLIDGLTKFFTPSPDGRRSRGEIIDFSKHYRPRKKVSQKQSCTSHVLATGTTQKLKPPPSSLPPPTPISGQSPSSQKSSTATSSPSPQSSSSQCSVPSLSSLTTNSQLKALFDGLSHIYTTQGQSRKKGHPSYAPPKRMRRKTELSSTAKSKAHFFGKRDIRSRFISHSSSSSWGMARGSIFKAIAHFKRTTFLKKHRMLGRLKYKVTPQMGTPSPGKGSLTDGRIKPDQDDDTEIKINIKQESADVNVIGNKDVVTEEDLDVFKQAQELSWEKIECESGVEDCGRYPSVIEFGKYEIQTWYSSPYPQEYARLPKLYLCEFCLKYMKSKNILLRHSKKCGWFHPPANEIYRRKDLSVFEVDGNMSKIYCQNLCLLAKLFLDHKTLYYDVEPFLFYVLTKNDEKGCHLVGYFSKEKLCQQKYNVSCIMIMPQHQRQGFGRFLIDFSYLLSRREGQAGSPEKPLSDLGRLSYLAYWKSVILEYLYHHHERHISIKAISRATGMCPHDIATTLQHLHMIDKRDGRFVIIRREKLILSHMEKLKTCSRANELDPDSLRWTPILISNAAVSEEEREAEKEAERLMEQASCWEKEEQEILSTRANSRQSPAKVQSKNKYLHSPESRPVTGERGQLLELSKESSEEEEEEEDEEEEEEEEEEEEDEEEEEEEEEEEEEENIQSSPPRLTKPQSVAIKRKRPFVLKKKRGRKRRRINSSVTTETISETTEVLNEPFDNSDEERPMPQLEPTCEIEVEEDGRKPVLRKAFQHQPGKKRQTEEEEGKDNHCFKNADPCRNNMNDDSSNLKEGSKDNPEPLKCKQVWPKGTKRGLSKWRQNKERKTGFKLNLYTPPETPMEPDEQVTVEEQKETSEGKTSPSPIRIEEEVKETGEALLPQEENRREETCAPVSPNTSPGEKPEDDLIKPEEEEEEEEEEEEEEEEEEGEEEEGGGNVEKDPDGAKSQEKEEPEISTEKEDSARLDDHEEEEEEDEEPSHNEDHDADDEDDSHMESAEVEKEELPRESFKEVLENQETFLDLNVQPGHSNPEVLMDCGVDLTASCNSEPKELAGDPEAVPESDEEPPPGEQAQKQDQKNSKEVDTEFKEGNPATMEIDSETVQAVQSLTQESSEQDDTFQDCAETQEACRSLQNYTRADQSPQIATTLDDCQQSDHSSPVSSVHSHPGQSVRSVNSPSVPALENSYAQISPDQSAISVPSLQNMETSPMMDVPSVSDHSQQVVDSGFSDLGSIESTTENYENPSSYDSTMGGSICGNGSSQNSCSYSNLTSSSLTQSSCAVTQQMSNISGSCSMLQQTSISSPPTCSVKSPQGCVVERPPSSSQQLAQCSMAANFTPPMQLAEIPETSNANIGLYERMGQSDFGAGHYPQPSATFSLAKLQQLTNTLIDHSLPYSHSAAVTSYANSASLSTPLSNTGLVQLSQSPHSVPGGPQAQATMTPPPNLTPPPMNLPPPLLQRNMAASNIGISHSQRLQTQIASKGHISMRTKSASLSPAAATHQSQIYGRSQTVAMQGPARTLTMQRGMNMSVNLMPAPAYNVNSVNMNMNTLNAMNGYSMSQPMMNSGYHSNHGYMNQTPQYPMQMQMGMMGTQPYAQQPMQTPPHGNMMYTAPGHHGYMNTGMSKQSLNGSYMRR
Data set [5] is described as follows: Apparent permeability across apical to basolateral side in human Caco-2 cells at 2 uM pH 7.2 measured for 2 hrs by LC-MS/MS analysis. The class given is ADME, cell-based.
Data set [6] in a line: Efflux ratio of apparent permeability across basolateral to apical side over apical to basolateral side in human Caco-2 cells incubated for 2 hrs by LC-MS/MS analysis. The class given is ADME, cell-based. The conditions noted are these: caco-2, 2 h.
The nature of data set [7]: Aqueous solubility of compound in PBS at pH 6.5 incubated for 24 hrs by HPLC-UV analysis. Format: physicochemical.
Data set [8] in a line: Lipophilicity, logD of the compound at pH 7.5. The class given is physicochemical. As to conditions: buffer.

Results on 36 compounds are retold here after ChEMBL document CHEMBL6092206, “Discovery and Characterization of BAY-184: A New Potent and Selective Acylsulfonamide-Benzofuran In Vivo-Active KAT6AB Inhibitor” (J Med Chem, 2024).

Values after ≈ are worked out from the molar mass of the structure shown. Where only a bound is given, the exact number is not on record here.

T1 sequence (Q92794 whole entry, the tested form may be a part): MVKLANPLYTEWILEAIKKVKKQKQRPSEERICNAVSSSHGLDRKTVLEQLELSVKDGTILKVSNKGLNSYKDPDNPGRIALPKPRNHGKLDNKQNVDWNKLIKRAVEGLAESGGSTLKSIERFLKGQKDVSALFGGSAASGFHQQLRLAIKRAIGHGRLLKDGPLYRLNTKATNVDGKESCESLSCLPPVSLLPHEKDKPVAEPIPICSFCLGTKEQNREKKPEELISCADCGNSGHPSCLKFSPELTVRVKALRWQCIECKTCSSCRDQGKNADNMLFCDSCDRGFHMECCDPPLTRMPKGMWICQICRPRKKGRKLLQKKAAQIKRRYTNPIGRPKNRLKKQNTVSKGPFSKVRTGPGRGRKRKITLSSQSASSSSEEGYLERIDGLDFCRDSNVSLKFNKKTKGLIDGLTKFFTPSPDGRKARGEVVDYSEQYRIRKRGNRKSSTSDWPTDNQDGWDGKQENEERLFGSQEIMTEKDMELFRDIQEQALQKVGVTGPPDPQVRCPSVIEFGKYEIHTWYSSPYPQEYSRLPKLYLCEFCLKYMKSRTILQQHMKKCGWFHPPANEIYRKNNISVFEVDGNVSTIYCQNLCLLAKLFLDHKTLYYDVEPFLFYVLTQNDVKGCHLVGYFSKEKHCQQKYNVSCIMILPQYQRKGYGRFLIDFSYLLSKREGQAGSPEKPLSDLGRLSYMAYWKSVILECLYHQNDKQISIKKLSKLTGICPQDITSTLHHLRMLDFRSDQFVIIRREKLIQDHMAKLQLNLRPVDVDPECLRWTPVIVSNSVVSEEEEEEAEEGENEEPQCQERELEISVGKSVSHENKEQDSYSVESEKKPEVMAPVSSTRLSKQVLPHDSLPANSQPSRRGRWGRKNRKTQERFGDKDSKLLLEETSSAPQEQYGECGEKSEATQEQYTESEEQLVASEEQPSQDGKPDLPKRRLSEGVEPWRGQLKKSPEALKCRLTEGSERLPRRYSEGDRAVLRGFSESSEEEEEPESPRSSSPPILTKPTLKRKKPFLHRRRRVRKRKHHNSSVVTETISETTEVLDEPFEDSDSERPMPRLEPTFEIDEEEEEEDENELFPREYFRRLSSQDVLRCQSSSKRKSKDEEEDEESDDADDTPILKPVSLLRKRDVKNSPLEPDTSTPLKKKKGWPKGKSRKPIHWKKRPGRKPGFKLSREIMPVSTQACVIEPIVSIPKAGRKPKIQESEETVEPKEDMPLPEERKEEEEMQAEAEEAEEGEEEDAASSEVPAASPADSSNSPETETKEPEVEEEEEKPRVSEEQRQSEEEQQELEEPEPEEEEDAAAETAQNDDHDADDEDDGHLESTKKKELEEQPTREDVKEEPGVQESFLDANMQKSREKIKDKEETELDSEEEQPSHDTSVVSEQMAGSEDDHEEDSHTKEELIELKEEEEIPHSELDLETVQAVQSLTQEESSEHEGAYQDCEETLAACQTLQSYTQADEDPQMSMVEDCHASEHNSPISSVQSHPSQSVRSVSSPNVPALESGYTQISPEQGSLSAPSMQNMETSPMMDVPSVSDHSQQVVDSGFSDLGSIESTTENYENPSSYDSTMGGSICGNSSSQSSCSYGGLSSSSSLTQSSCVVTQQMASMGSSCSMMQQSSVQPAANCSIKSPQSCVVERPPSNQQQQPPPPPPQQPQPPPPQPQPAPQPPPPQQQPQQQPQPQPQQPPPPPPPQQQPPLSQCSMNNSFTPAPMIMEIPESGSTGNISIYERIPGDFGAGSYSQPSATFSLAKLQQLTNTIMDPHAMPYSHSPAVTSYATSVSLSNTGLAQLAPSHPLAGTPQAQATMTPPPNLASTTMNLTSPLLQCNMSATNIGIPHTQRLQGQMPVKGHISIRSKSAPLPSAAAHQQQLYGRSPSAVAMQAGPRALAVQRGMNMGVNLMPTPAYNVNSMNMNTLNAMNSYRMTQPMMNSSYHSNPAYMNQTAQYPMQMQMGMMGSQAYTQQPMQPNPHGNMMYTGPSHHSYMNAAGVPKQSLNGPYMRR

Turning to `Cc1cc(N(C)C)cc2oc(C(=O)NS(=O)(=O)c3ccccc3-c3ccccc3)cc12`, in data set [1], the IC50 is above 20 µM.
Consider `COc1cc(C)c2cc(C(=O)NS(=O)(=O)c3ccc(Cl)cc3)oc2c1`, for which the IC50 in data set [2] was 0.075 µM; in data set [1], 2.28 µM. Besides, in data set [3], the pKa amounted to 2.9.
Turning to `CCCOc1ccccc1S(=O)(=O)NC(=O)c1cc2c(C)cc(OC)cc2o1`, the concentration for half-maximal inhibition (IC50) turned out to be 0.019 µM in data set [2] and 6.54 µM in data set [1]. For the same compound, the pKa in data set [3] worked out at 4.
As for `COc1ccc2oc(C(=O)NS(=O)(=O)c3ccccc3-c3ccccc3)cc2c1`, the concentration for half-maximal inhibition (IC50) in data set [2] is 1.8 µM; in data set [4], 9.02 µM.
Regarding `O=C(NS(=O)(=O)c1ccccc1-c1ccccc1)c1cc2ccc(C(F)F)cc2o1`, in data set [1], the concentration for half-maximal inhibition (IC50) was above 20 µM.
In the case of `CCCN(C)c1ccc2cc(C(=O)NS(=O)(=O)c3ccccc3-c3ccccc3)oc2c1`, the IC50 in data set [2] was 0.751 µM; in data set [1], above 20 µM.
`COc1cc(C)c2cc(C(=O)NS(=O)(=O)c3ccc(C)cc3)oc2c1`: the IC50 stood at 0.107 µM in data set [2] and 18.2 µM in data set [1]. Further, the pKa in data set [3] came out at 3.
For the compound `C=C(C)c1ccc2cc(C(=O)NS(=O)(=O)c3ccccc3-c3ccccc3)oc2c1`, the IC50 in data set [1] is 1.32 µM.
Turning to `CC(C)c1ccc2cc(C(=O)NS(=O)(=O)c3ccccc3-c3ccccc3)oc2c1`, in data set [1], the IC50 was 3.02 µM.
In the case of `CCOc1ccccc1S(=O)(=O)NC(=O)c1cc2c(OC)cc(OC)cc2o1`, the Papp A→B at 2 h, 2 µM in data set [5] (Caco-2, pH 7.2) was determined as 2.8 ×10⁻⁶ cm/s.
As to `COc1cc(C)c2cc(C(=O)NS(=O)(=O)c3ccc(-c4ccccc4)cc3)oc2c1`, the IC50 is 0.046 µM in data set [2] and above 17.6 µM in data set [1]. In addition, the pKa in data set [3] turned out to be 5.8.
As for `COc1cccc2cc(C(=O)NS(=O)(=O)c3ccccc3-c3ccccc3)oc12`, the values for the IC50 in data set [2], in data set [4] and in data set [1] were 0.142 µM, 0.351 µM and 4.52 µM, respectively.
With `CCOc1ccc2cc(C(=O)NS(=O)(=O)c3ccccc3-c3ccccc3)oc2c1`, the IC50 came out at 0.554 µM in data set [2] and 9.75 µM in data set [1].
In the case of `COc1cc(C)c2cc(C(=O)NS(=O)(=O)c3ccccc3OC)oc2c1`, the IC50 in data set [2] was 0.046 µM; in data set [1], 13.2 µM. The compound also showed a pKa in data set [3] of 3.2.
Turning to `O=C(NS(=O)(=O)c1ccccc1-c1ccccc1)c1cc2c(F)cc(C3CC3)cc2o1`, the IC50 was determined as 0.173 µM in data set [2] and 1 µM in data set [1].
As for `O=C(NS(=O)(=O)c1ccccc1-c1ccccc1)c1cc2ccc(C3CC3)cc2o1`, the 50% inhibitory concentration (IC50) in data set [1] amounted to 1.02 µM.
For `CCOc1cccc(-c2cccc(Cl)c2)c1S(=O)(=O)NC(=O)c1cc2c(C)cc(OC)cc2o1`, the half-inhibitory concentration (IC50) amounted to 0.011 µM in data set [2] and 3.68 µM in data set [1]. This compound registered a pKa in data set [3] of 6.
As for `Cc1cc(Br)cc2oc(C(=O)NS(=O)(=O)c3ccccc3-c3ccccc3)cc12`, the concentration for half-maximal inhibition (IC50) in data set [2] was 0.066 µM; in data set [1], above 20 µM.
For `COCCN(C)c1ccc2cc(C(=O)NS(=O)(=O)c3ccccc3-c3ccccc3)oc2c1`, the IC50 was 1.35 µM in data set [2] and above 15.5 µM in data set [1].
In the case of `COc1cccc2oc(C(=O)NS(=O)(=O)c3ccccc3-c3ccccc3)cc12`, the IC50 in data set [2] came out at 1.35 µM; in data set [4], 3.14 µM.
With `COc1cc(C)cc2oc(C(=O)NS(=O)(=O)c3ccccc3-c3ccccc3)cc12`, the IC50 in data set [1] amounted to 10 µM.
As for `O=C(NS(=O)(=O)c1ccccc1-c1ccccc1)c1cc2ccc(OCCO)cc2o1`, the 50% inhibitory concentration (IC50) in data set [2] is 1.37 µM; in data set [1], above 20 µM.
With `Cc1cccc2oc(C(=O)NS(=O)(=O)c3ccccc3-c3ccccc3)cc12`, the IC50 in data set [2] is 0.454 µM; in data set [4] it was 2.57 µM.
In the case of `O=C(NS(=O)(=O)c1ccccc1-c1ccccc1)c1cc2ccccc2o1`, the 50% inhibitory concentration (IC50) in data set [2] is 2.16 µM; in data set [4] it was 10.5 µM; in data set [1], above 20 µM.
In the case of `CNc1ccc2cc(C(=O)NS(=O)(=O)c3ccccc3-c3ccccc3)oc2c1`, the IC50 in data set [1] came to 2.58 µM.
For `CCOc1cccc(-c2ccccc2)c1S(=O)(=O)NC(=O)c1cc2c(C)cc(OC)cc2o1`, the IC50 in data set [2] came to 0.032 µM; in data set [1] it was 1.4 µM. Besides, the pKa in data set [3] was determined as 5.6.
On to `COc1cc(C)c2cc(C(=O)NS(=O)(=O)c3cccc4ccc(C)nc34)oc2c1`, for which the figures for the half-inhibitory concentration (IC50) in data set [2] and in data set [1] were 0.013 µM and 2.57 µM, respectively.
For the compound `CCCOc1ccc2cc(C(=O)NS(=O)(=O)c3ccccc3-c3ccccc3)oc2c1`, the IC50 in data set [2] stood at 1.54 µM; in data set [1], 8.68 µM.
`COCCc1ccc2cc(C(=O)NS(=O)(=O)c3ccccc3-c3ccccc3)oc2c1`: in data set [1], the IC50 was above 15.6 µM.
On to `O=C(NS(=O)(=O)c1ccccc1-c1ccccc1)c1cc2ccc(N3CCOCC3)cc2o1`, for which the IC50 in data set [2] and in data set [1] was above 20 µM each time.
`COc1cc(C)c2cc(C(=O)NS(=O)(=O)c3ccc(C)cc3-c3ccccc3)oc2c1`: the IC50 in data set [2] was 0.01 µM; in data set [1], above 20 µM. In addition, the pKa in data set [3] was 4.7.
Consider `Cc1ccc2cc(C(=O)NS(=O)(=O)c3ccccc3-c3ccccc3)oc2c1`, for which the IC50 in data set [1] was above 11 µM.
On to `COc1ccc2cc(C(=O)NS(=O)(=O)c3ccccc3-c3ccccc3)oc2c1`, for which the IC50 in data set [2] stood at 0.26 µM; in data set [4], 0.368 µM; in data set [1], 7.62 µM.
For the compound `COc1cc(C)c2cc(C(=O)NS(=O)(=O)c3ccccc3-c3ccccc3)oc2c1`, the IC50 in data set [2] is 0.024 µM; in data set [4] it was 0.076 µM; in data set [1], above 4.6 µM. In data set [5] (caco-2, pH 7.2, 2 h, 2 µM), the apparent permeability coefficient (Papp) came out at 6.4 ×10⁻⁶ cm/s. Moreover, the Ratio in data set [6] is 1. Moreover, the pKa in data set [3] worked out at 4.3.
In turn, `CN(C)c1cc(F)c2cc(C(=O)NS(=O)(=O)c3ccccc3-c3ccccc3)oc2c1` yielded a solubility at 24 h in data set [7] of 264 µg/mL (≈ 602 µM). Moreover, the IC50 in data set [1] came out at 0.06 µM. The pH-dependent lipophilicity (logD) in data set [8] was 2.
Take `Cc1cc(C)c2cc(C(=O)NS(=O)(=O)c3ccccc3-c3ccccc3)oc2c1`: in data set [1], the IC50 was determined as 2.5 µM.
